Data from US20260285853A1, “COMPOUNDS AND METHODS FOR MODULATING SPLICING” (REMIX THERAPEUTICS INC., priority 2023, published 2026).
Where two headings read alike, the source gives them in different places.

Experiments:
Assay type in all cases: cell-based
[1] = tested on: HTT mRNA; assay: Gene panel canonical junction qPCR assay, decrease in CJ mRNA, Table 3
Outline: (§1)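 Canonical exon-junction (CJ) transcript measured by 5′ nuclease RT-qPCR, normalized to GAPDH, GUSB or PPIA and to DMSO control (2^(−ΔΔCt)). A673 or K562 cells treated 24 h at 37° C with an 11-point 3-fold dilution series, top 10 uM, DMSO ≤0.25%. IC50 from 4-parameter logistic fit of percentage CJ decrease.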

[2] = tested on: MYB mRNA; assay: as above
Outline: as §1

[3] = tested on: SH-SY5Y (human neuroblastoma) cells; assay: Cell viability, Cell Titer Glo 2.0 assay; conditions: read-out: Viability SHSY5Y.3 GI50
Outline: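 SH-SY5Y cells were exposed to serially diluted compounds in IMDM with 10% FBS and 0.1% DMSO for 72 hours at 37° C., 5% CO2. Viability was measured by CellTiter-Glo 2.0 luminescence, with medium-only wells as blank.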

[4] = tested on: MYB mRNA; assay: Splicing RT-qPCR assay (THP), Table 2A
[5] = tested on: HTT mRNA; assay: Splicing RT-qPCR assay (THP), Table 2A
[6] = decrease in canonical junction (CJ) mRNA, gene panel qPCR, Table 3
[7] = Table 2A (THP), AJ mRNA increase, read-out: MYB AJ (increase in alternative junction mRNA, AC50)
[8] = Table 2A (THP), CJ mRNA decrease, read-out: MYB CJ (decrease in canonical junction mRNA, IC50)
[9] = Table 2A (THP), AJ mRNA increase, read-out: HTT AJ (increase in alternative junction mRNA, AC50)
[10] = Table 2A (THP), CJ mRNA decrease, read-out: HTT CJ (decrease in canonical junction mRNA, IC50)
[11] = decrease in CJ mRNA levels, canonical junction qPCR, gene panel
[12] = Table 2A, THP, MYB alternative junction (AJ) mRNA, read-out: MYB AJ (AC50, increase in alternative junction mRNA)
[13] = Table 2A, THP, MYB canonical junction (CJ) mRNA, read-out: MYB CJ (IC50, decrease in canonical junction mRNA)
[14] = Table 2A, THP, HTT alternative junction (AJ) mRNA, read-out: HTT AJ (AC50, increase in alternative junction mRNA)
[15] = Table 2A, THP, HTT canonical junction (CJ) mRNA, read-out: HTT CJ (IC50, decrease in canonical junction mRNA)

| Structure (SMILES) | IC50 [1, 6] [nM] | IC50 [2, 6] [nM] | GI50 [3] [nM] | IC50 [4, 8] [nM] | IC50 [5, 10] [nM] | IC50 [1, 11] [nM] | IC50 [2, 11] [nM] | IC50 [4, 13] [nM] | IC50 [5, 15] [nM] | AC50 [4, 7] [nM] | AC50 [5, 9] [nM] | AC50 [4, 12] [nM] | AC50 [5, 14] [nM] |
| --- | --- | --- | --- | --- | --- | --- | --- | --- | --- | --- | --- | --- | --- |
| COc1nc2c(C(=O)Nc3cc(C)c4nn(C)cc4n3)ccc(N3C[C@H](C)N[C@@H](C)C3)c2s1 [Compound 738, N-(2,7-dimethyl-2H-pyrazolo[4,3-b]pyridin-5-yl)-7-((3S,5S)-3,5-dimethylpiperazin-1-yl)-2-methoxybenzo[d]thiazole-4-carboxamide 2,2,2-trifluoroacetate] | – | – | 100 to 1000 | – | – | > 10000 | < 100 | < 100 | > 10000 | – | – | < 100 | > 10000 |
| Cc1cn2cc(NC(=O)c3ccc(N4CCC(NC5CC5)CC4)c4cn(C)nc34)nc2c(CNS(C)(=O)=O)n1 [Compound 694, 4-(4-(cyclopropylamino)piperidin-1-yl)-2-methyl-N-(6-methyl-8-(methylsulfonamidomethyl)imidazo[1,2-a]pyrazin-2-yl)-2H-indazole-7-carboxamide 2,2,2-trifluoroacetate] | – | – | > 10000 | – | – | > 10000 | > 10000 | > 10000 | > 10000 | – | – | > 10000 | > 10000 |
| C=CCNC1CCN(c2ccc(C(=O)Nc3cc(CNC4(C)COC4)c4nn(C)cc4c3)c3nn(C)cc23)CC1 [Compound 835] | – | – | > 10000 | – | – | > 10000 | > 10000 | > 10000 | > 10000 | – | – | > 10000 | > 10000 |
| COc1cc2c(N3CCC(NC4CC4)CC3)ccc(C(=O)Nc3cn4cc(C)nc(C)c4n3)n2n1 [Compound 633, 4-[4-(cyclopropyl-amino)-1-piperidyl]-N-(6,8-dimethyl-imidazo[1,2-a]pyrazin-2-yl)-2-methoxypyrazolo [1,5-a]-pyridine-7-carboxamide] | – | – | > 10000 | – | – | > 10000 | 100 to 1000 | 100 to 1000 | > 10000 | – | – | 100 to 1000 | > 10000 |
| Cc1cn2cc(NC(=O)c3c(F)cc(N4CCC(N)CC4)c4cn(C)nc34)nc2c(C)n1 [Compound 347, 4-(4-aminopiperidin-1-yl)-N-(6,8-dimethylimidazo[1,2-a]pyrazin-2-yl)-6-fluoro-2-methyl-2H-indazole-7-carboxamide 2,2,2-trifluoroacetate] | 1000 to 10000 | < 100 | 1000 to 10000 | < 100 | 1000 to 10000 | – | – | – | – | < 100 | 1000 to 10000 | – | – |
| CCNC1CCN(c2ccc(C(=O)Nc3cc(F)c4nn(C)cc4c3)c3nc(OC)sc23)CC1 [Compound 704, 7-(4-(ethylamino)piperidin-1-yl)-N-(7-fluoro-2-methyl-2H-indazol-5-yl)-2-methoxybenzo[d]thiazole-4-carboxamide 2,2,2-trifluoroacetate] | – | – | 100 to 1000 | – | – | 100 to 1000 | < 100 | < 100 | 100 to 1000 | – | – | < 100 | 100 to 1000 |
| Cc1cn2cc(NC(=O)c3ccc(N4CCC(NC5CC5)CC4)c4cc(CO)nn34)nc2c(C)n1 [Compound 616, 4-[4-(cyclopropylamino)-1-piperidyl]-N-(6,8-dimethylimidazo[1,2-a]pyrazin-2-yl)-2-(hydroxymethyl) pyrazolo[1,5-a]-pyridine-7-carboxamide] | – | – | 1000 to 10000 | – | – | 1000 to 10000 | 1000 to 10000 | 1000 to 10000 | 1000 to 10000 | – | – | 1000 to 10000 | 1000 to 10000 |
| CCNC1CCN(c2ccc(C(=O)Nc3cc(CO)c4nc(C)cn4c3)c3nn(C)cc23)CC1 [Compound 329, 4-[4-(ethylamino)-1-piperidyl]-N-[8-(hydroxymethyl)-2-methyl-imidazo[1,2-a]pyridin-6-yl]-2-methyl-indazole-7-carboxamide] | > 10000 | 100 to 1000 | 1000 to 10000 | 100 to 1000 | > 10000 | – | – | – | – | 100 to 1000 | 1000 to 10000 | – | – |
| Cc1cc2oc(NC(=O)c3c(F)cc(N4CCC(NC5CC5)CC4)c4cn(C)nc34)cc2c(C)n1 [Compound 491, 4-[4-(cyclopropylamino)-1-piperidyl]-N-(4,6-dimethyl-furo[3,2-c]pyridin-2-yl)-6-fluoro-2-methyl-indazole-7-carboxamide] | > 10000 | > 10000 | 1000 to 10000 | > 10000 | > 10000 | – | – | – | – | > 10000 | > 10000 | – | – |
| Cc1cn2c(N3CCC(NC4CC4)CC3)ccc(C(=O)Nc3cc(CNS(C)(=O)=O)c4nn(C)cc4c3)c2n1 [Compound 839] | – | – | 1000 to 10000 | – | – | 1000 to 10000 | 100 to 1000 | 100 to 1000 | 1000 to 10000 | – | – | 100 to 1000 | 1000 to 10000 |
| Cc1cn2cc(NC(=O)c3ccc(N4CC5(CNC5)C4)c4cn(C)nc34)nc2c(C)n1 [Compound 496] | > 10000 | 1000 to 10000 | > 10000 | 1000 to 10000 | > 10000 | – | – | – | – | 100 to 1000 | > 10000 | – | – |
| COc1cc2nn(C)cc2cc1NC(=O)c1ccc(N2CCC3(CCCN3)CC2)c2cn(C)nc12 [Compound 541] | 100 to 1000 | < 100 | 1000 to 10000 | < 100 | 100 to 1000 | – | – | – | – | < 100 | 100 to 1000 | – | – |
| CCNC1CCN(c2cc(OC)c(C(=O)Nc3cn4cc(C)nc(C)c4n3)c3nn(C)cc23)CC1 [Compound 333, N-(6,8-dimethylimidazo[1,2-a]pyrazin-2-yl)-4-[4-(ethylamino)-1-piperidyl]-6-methoxy-2-methyl-indazole-7-carboxamide] | > 10000 | > 10000 | > 10000 | > 10000 | > 10000 | – | – | – | – | > 10000 | > 10000 | – | – |

Now from value to compound, other results behind:

| IC50 [1, 6] [nM] | IC50 [2, 6] [nM] | GI50 [3] [nM] | IC50 [4, 8] [nM] | IC50 [5, 10] [nM] | IC50 [1, 11] [nM] | IC50 [2, 11] [nM] | IC50 [4, 13] [nM] | IC50 [5, 15] [nM] | Structure (SMILES) | AC50 [4, 7] [nM] | AC50 [5, 9] [nM] | AC50 [4, 12] [nM] | AC50 [5, 14] [nM] |
| --- | --- | --- | --- | --- | --- | --- | --- | --- | --- | --- | --- | --- | --- |
| 1000 to 10000 | < 100 | 100 to 1000 | < 100 | 1000 to 10000 | – | – | – | – | COc1cc2nn(C)cc2cc1NC(=O)c1c(O)cc(N2CCC(NC3CC3)CC2)c2cn(C)nc12 [Compound 463, 4-[4-(cyclopropylamino)-1-piperidyl]-6-hydroxy-N-(6-methoxy-2-methyl-indazol-5-yl)-2-methyl-indazole-7-carboxamide] | < 100 | 1000 to 10000 | – | – |
| – | – | 100 to 1000 | – | – | < 100 | < 100 | < 100 | < 100 | COc1nc2c(C(=O)Nc3cc(F)c4nn(C)cc4c3)ccc(N3CCC4(CCCN4)CC3)c2s1 [Compound 768] | – | – | < 100 | < 100 |
| – | – | < 100 | – | – | 1000 to 10000 | < 100 | < 100 | 1000 to 10000 | COc1nc2c(C(=O)Nc3cc(F)c4nc(CO)cn4c3)ccc(N3C[C@H](C)N[C@@H](C)C3)c2s1 [Compound 810] | – | – | < 100 | 100 to 1000 |
| – | – | < 100 | – | – | 100 to 1000 | < 100 | < 100 | 100 to 1000 | COc1nc2c(C(=O)Nc3cc(Cl)c4nn(C)cc4c3)ccc(N3C[C@H](C)N[C@@H](C)C3)c2s1 [Compound 785] | – | – | < 100 | 100 to 1000 |
| < 100 | < 100 | < 100 | < 100 | < 100 | – | – | – | – | CCNC1CCN(c2cc(Cl)c(C(=O)Nc3cn4cc(C)nc4c(F)c3OC)c3nn(C)cc23)CC1 [Compound 335, 6-chloro-4-[4-(ethylamino)-1-piperidyl]-N-(8-fluoro-7-methoxy-2-methyl-imidazo[1,2-a]pyridin-6-yl)-2-methyl-indazole-7-carboxamide] | < 100 | < 100 | – | – |
